Measured values published in US8309550B2, “Kinase inhibitors and their use as pharmaceutical agents” (Shanghai Genomics, Inc., priority 2011, dated 2012).
Read-outs that look alike come from different tables or passages of the source.

How the values were obtained:
TSSK1 = target: T1, TSSK1 (Homo sapiens, UniProt Q9BXA7); assay: Kinase assay TSSK1 (Table III); settings: read-out: Target biochemical activity IC50 TSSK1
T1 sequence (Q9BXA7 1-367): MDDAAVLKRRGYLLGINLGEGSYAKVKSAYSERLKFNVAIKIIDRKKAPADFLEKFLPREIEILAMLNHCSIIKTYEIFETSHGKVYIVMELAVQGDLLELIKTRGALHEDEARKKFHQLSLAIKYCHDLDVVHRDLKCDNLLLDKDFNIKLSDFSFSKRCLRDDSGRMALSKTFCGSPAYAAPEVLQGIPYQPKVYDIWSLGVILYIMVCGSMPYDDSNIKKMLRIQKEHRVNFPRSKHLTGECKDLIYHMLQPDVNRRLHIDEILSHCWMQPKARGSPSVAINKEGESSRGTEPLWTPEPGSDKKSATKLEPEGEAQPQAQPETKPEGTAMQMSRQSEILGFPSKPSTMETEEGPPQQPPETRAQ
Description: (§1) Kinase assays. The compounds were tested for their ability to inhibit kinases.

SRC = SRC (Homo sapiens, UniProt P12931); assay: Kinase assay SRC (Table III); settings: read-out: Target biochemical activity IC50 SRC
SRC, sequence (P12931 whole entry, species assumed): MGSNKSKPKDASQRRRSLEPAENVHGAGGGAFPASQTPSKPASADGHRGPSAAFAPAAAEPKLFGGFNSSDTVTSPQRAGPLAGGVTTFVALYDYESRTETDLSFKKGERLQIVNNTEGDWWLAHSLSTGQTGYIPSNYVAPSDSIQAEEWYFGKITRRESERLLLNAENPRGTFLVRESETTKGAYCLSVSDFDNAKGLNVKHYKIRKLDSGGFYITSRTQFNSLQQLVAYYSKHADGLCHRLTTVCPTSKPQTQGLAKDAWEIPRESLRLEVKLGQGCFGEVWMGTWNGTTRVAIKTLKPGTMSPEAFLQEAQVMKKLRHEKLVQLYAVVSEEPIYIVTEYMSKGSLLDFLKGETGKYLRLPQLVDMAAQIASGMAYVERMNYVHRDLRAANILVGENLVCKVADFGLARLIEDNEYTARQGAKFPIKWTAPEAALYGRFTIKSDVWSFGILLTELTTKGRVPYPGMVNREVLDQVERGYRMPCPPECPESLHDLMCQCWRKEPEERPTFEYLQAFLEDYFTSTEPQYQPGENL
Description: as §1

CDK9 = CDK9 (Homo sapiens, UniProt P50750); assay: CDK9 inhibitory activity, kinase assays (Table III); settings: read-out: Target biochemical activity IC50 CDK9
CDK9, sequence (P50750 whole entry, species assumed): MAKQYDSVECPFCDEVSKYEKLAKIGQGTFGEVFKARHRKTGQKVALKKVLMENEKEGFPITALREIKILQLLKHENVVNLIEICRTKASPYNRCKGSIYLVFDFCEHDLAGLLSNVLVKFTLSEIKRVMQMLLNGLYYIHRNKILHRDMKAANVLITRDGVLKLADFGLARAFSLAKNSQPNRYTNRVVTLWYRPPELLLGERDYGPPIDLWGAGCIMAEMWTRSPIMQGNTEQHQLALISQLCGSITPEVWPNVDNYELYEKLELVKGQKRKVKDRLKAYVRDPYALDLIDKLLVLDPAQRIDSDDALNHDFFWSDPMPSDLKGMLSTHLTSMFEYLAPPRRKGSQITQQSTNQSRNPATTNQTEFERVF
CDK9, sequence (O60563 whole entry partner, species assumed): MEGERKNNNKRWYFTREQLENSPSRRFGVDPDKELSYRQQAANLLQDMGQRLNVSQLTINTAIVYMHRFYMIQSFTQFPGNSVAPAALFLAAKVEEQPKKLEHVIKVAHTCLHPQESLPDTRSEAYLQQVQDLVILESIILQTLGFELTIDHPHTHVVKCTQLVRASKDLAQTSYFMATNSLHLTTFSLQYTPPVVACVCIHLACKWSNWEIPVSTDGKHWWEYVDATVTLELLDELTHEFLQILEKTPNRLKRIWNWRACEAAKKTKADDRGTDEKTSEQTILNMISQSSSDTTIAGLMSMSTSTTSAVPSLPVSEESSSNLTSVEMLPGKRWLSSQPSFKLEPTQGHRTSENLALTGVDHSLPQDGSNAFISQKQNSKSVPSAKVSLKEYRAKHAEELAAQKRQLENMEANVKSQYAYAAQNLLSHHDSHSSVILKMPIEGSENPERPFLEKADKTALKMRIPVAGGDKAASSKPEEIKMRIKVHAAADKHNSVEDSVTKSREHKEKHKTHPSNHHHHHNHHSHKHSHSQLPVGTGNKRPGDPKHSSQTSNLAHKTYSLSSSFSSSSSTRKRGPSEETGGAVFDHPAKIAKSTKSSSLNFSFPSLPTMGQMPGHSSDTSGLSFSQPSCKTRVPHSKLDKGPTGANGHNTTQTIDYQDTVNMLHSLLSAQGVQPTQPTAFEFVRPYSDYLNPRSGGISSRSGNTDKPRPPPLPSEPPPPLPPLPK
Description: as §1

CDK7 = CDK7 (Homo sapiens, UniProt P50613); assay: Kinase assay CDK7 (Table III); settings: read-out: Target biochemical activity IC50 CDK7
CDK7, sequence (P50613 whole entry, species assumed): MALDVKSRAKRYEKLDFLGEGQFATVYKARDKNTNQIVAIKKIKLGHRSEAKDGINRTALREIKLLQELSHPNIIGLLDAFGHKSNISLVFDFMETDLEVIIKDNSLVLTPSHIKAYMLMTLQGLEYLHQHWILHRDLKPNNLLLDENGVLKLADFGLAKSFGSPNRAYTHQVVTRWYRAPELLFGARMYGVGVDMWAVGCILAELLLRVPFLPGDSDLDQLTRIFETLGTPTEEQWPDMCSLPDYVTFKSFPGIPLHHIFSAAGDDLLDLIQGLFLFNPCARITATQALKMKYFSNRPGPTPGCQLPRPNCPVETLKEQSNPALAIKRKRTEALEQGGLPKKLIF
CDK7, sequence (P51946 whole entry partner, species assumed): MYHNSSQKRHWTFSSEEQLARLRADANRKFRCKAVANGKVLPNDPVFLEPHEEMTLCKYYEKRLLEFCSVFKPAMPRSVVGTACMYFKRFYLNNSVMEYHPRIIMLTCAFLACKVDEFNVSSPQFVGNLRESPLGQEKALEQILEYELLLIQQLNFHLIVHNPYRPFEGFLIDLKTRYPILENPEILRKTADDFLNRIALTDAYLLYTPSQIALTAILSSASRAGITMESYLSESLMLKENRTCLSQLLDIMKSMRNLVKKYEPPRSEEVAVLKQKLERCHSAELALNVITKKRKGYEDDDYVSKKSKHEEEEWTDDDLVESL
CDK7, sequence (P51948 whole entry partner, species assumed): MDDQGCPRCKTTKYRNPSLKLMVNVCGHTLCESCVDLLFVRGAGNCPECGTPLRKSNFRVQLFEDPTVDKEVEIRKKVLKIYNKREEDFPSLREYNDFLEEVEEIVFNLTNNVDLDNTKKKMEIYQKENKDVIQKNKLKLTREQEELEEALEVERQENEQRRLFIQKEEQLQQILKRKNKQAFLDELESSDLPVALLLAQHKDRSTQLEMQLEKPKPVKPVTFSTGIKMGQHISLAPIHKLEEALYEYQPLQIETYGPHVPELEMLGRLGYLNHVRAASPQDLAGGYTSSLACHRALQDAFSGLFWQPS
Description: as §1

Jurkat = assay: 72 h MTT cell viability Jurkat; type: cell-based; settings: Homo sapiens
Excerpt: (§2) MIT cytotoxicity assay. The compounds of the invention were subjected to a standard cellular proliferation assay using human cell lines. HeLa cells (Human cervix adenocarcinoma cell line, ATCC NO, CCL-2); A549 cells (Human lung carcinoma cells line, ATCC NO, CCL-185); U2OS cells (Human osteosarcoma cell line, ATCC NO, HTB-96); Eca-109 cells (Human esophageal carcinoma cell line); HepG2 (Human hepatocellular liver carcinoma cell line, ATCC NO, HB-8065); K562 cells (Human chronic myelogenous leukemia cell line, ATCC NO, CCL-243); SK-MEL-28 (Human malignant melanoma cell line, ATCC NO, HTB-72); Molt-4 (Human acute lymphoblastic leukemia cell line, ATCC NO, CRL-1582); H460 (Human large cell lung cancer cell line, ATCC NO, HTB-177); MDA-MB-231 (Human breast adenocarcinoma cell line, ATCC NO, HTB-26); MCF7 (Human breast adenocarcinoma cell line, ATCC NO, HTB-22); ACHN (Human renal cell adenocarcinoma cell line, ATCC NO, CRL-1611); PC-3M (Human prostate adenocarcinoma cell line, ATCC NO CRL-1435); HL60 (Human acute promyelocytic leukemia cell line, ATCC NO, CCL-240); THP-1 (Human acute monocytic leukemia, ATCC NO, TIB-202); Jurkat (Human acute T cell leukemia cell line, ATCC NO, CRL-2063); HCT-116 (Human colorectal carcinoma cell line, ATCC NO, CCL-247); HT-29 (Human colorectal adenocarcinoma cell line, ATCC NO, HTB-38™); WI-38 (Human normal lung cell line, ATCC NO, CCL-75); MRC-5 (Human normal lung cell line, ATCC NO, CCL-171).
(§3) HepG2, MDA-MB-231, WI-38 and MRC-5 cells were obtained from Shanghai Institute of Cell Biology, Chinese Academy of Sciences (Shanghai 200031, China). A549, HeLa, K562, MCF7, ACHN, H460, U2OS, Eca-109, MCF7, HL60, THP-1, Jurkat, HCT-116, HT-29, PC-3M, SK-MEL-28, Molt-4, H460 and […] cells were purchased from ATCC (American Type Culture Collection, USA).
(§4) Standard 72 h MTT (thiazolye blue; 3-[4,5-dimethylthiazol-2-yl]-2,5-diphenyltetrazolium bromide) assays were performed. Briefly, the cell lines used in this study were recovered and cultured according to the conditions recommended. 4000 cells per well were seeded into 96-well plates according to doubling time and incubated overnight at 37° C. Compounds were prepared in DMSO and a ½ dilution series in 100 μl cell culture media, added to cells (in duplicates) with the final DMSO concentration of 0.025%, and incubated for 72 hrs at 37° C. MTT solution (5 mg/ml) was added at 10 μl per well and incubated in the dark at 37° C. for 4 hr. Culture medium and MTT solution was removed. MTT dye was solubilised with 100 μl per well of DMSO with agitation. Absorbance was read at 562 nm and data analyzed using Sigmoid curve-fitting software Origin 6.0 (MicroCal, LLC, USA) to determine IC50 value.

HepG2 = assay: 72 h MTT cytotoxicity assay HepG2; type: cell-based; settings: Homo sapiens; HepG2, 72 hrs
Excerpt: as §2, §3, §4

Eca-109 cells = assay: 72 h MTT cytotoxicity assay Eca-109; type: cell-based; settings: Homo sapiens; Eca-109, 72 hrs
Excerpt: as §2, §3, §4

ACHN-luc = assay: 72 h MTT cell viability ACHN-luc; type: cell-based; settings: Homo sapiens
Excerpt: as §2, §3, §4

HCT 116 = assay: 72 h MTT cell viability HCT 116; type: cell-based; settings: Homo sapiens
Excerpt: as §2, §3, §4

[1] = Table III, read-out: Cellular effect in mammalian cells IC50 Jurkat
[2] = HCT116, Table III, read-out: Cellular effect in mammalian cells IC50 HCT116
[3] = read-out: Cell Viability IC50 HCT 116
[4] = read-out: Cell Viability IC50 Jurkat

Structure (SMILES): CCCn1cc(-c2ccnc(Nc3cccc(S(N)(=O)=O)c3)n2)c2nc(Cl)cc(C)c21 [SG53]
- IC50 (TSSK1): > 10 µM
- IC50 (SRC): > 10 µM
- IC50 (CDK9): 0.041 µM
- IC50 (CDK7): > 10 µM
- IC50 (Jurkat; [1]): 0.36 µM

Structure (SMILES): CCCn1cc(-c2ccnc(Nc3ccc(C)c(S(=O)(=O)N4CCOCC4)c3)n2)c2ccncc21 [Compound 102, N-(4-Methyl-3-(morpholinosulfonyl)phenyl)-4-(1-propyl-1H-pyrrolo[2,3-c]pyridin-3-yl)pyrimidin-2-amine]
- IC50 (HepG2): 0.5 µM
- IC50 (Eca-109 cells): 3.52 µM
- IC50 (ACHN-luc): 0.62 µM

Structure (SMILES): CCCn1cc(-c2ccnc(Nc3ccc(O)cc3)n2)c2cccnc21 [Compound 15, 4-(4-(1-Propyl-1H-pyrrolo[2,3-b]pyridin-3-yl)pyrimidin-2-ylamino)phenol]
- IC50 (HepG2): 1.16 µM
- IC50 (Eca-109 cells): 20 µM
- IC50 (ACHN-luc): 7.81 µM

Structure (SMILES): CCCn1cc(-c2ccnc(Nc3ccc(C)c(S(=O)(=O)N4CCOCC4)c3)n2)c2ccncc21 [SG52]
- IC50 (TSSK1): > 10 µM
- IC50 (SRC): 3.93 µM
- IC50 (CDK9): 0.0004 µM
- IC50 (HCT 116; [2]): 0.28 µM
- IC50 (CDK7): 1.95 µM
- IC50 (Jurkat; [1]): 0.69 µM

Structure (SMILES): CCCn1cc(-c2ccnc(Nc3ccc(C)c(S(=O)(=O)N4CCOCC4)c3)n2)c2cccnc21 [Compound 24, N-(4-Methyl-3-(morpholinosulfonyl)phenyl)-4-(1-propyl-1H-pyrrolo[2,3-b]pyridin-3-yl)pyrimidin-2-amine]
- IC50 (HepG2): 1.32 µM
- IC50 (HCT 116; [3]): 3.43 µM
- IC50 (Eca-109 cells): 5.3 µM
- IC50 (ACHN-luc): 5.58 µM
- IC50 (Jurkat; [4]): 1.79 µM

Structure (SMILES): CCCn1cc(-c2ccnc(Nc3cccc(S(N)(=O)=O)c3)n2)c2cccnc21 [Compound 22, 3-(4-(1-Propyl-1H-pyrrolo[2,3-b]pyridin-3-yl)pyrimidin-2-ylamino)benzenesulfonamide]
- IC50 (HepG2): 0.7 µM
- IC50 (HCT 116; [3]): 1.89 µM
- IC50 (Eca-109 cells): 3.4 µM
- IC50 (ACHN-luc): 3.74 µM
- IC50 (Jurkat; [4]): 1.47 µM

Structure (SMILES): CCCn1cc(-c2ccnc(Nc3ccc(S(N)(=O)=O)cc3)n2)c2ccncc21 [Compound 112, 4-(4-(1-Propyl-1H-pyrrolo[2,3-c]pyridin-3-yl)pyrimidin-2-ylamino)benzenesulfonamide]
- IC50 (HepG2): 0.47 µM
- IC50 (HCT 116; [3]): 0.005 µM
- IC50 (Eca-109 cells): 0.01 µM
- IC50 (ACHN-luc): 0.037 µM
- IC50 (Jurkat; [4]): 0.0025 µM

Structure (SMILES): CCCn1cc(-c2ccnc(Nc3cccc(S(N)(=O)=O)c3)n2)c2ccnc(Cl)c21 [Compound 96, 3-(4-(7-chloro-1-propyl-1H-pyrrolo[2,3-c]pyridin-3-yl)pyrimidin-2-ylamino)benzenesulfonamide]
- IC50 (HepG2): 0.25 µM
- IC50 (HCT 116; [3]): 0.32 µM
- IC50 (Eca-109 cells): > 10 µM
- IC50 (ACHN-luc): 0.34 µM
- IC50 (Jurkat; [4]): 0.22 µM

Structure (SMILES): CCCn1cc(-c2ccnc(Nc3ccc(S(N)(=O)=O)cc3)n2)c2nc(Cl)cc(C)c21 [SG54]
- IC50 (TSSK1): > 10 µM
- IC50 (SRC): > 10 µM
- IC50 (CDK9): 0.057 µM
- IC50 (HCT 116; [2]): 3.46 µM
- IC50 (CDK7): > 10 µM
- IC50 (Jurkat; [1]): 1.12 µM

Structure (SMILES): CCn1cc(-c2ccnc(Nc3cccc(S(N)(=O)=O)c3)n2)c2cccnc21 [Compound 18, 3-(4-(1-Ethyl-1H-pyrrolo[2,3-b]pyridin-3-yl)pyrimidin-2-ylamino)benzenesulfonamide]
- IC50 (SRC): 1.05 µM
- IC50 (CDK9): 0.013 µM
- IC50 (HepG2): 0.68 µM
- IC50 (HCT 116; [2]): 2.1 µM
- IC50 (CDK7): 0.146 µM
- IC50 (Eca-109 cells): 11.7 µM
- IC50 (ACHN-luc): 2.98 µM
- IC50 (Jurkat; [1]): 1.31 µM

Structure (SMILES): CCCn1cc(-c2ccnc(Nc3cccc(O)c3)n2)c2cccnc21 [Compound 16, 3-(4-(1-Propyl-1H-pyrrolo[2,3-b]pyridin-3-yl)pyrimidin-2-ylamino)phenol]
- IC50 (HepG2): 1.6 µM
- IC50 (Eca-109 cells): 12.9 µM
- IC50 (ACHN-luc): 7.38 µM

Structure (SMILES): CCCn1cc(-c2ccnc(Nc3cccc(S(N)(=O)=O)c3)n2)c2nc(Cl)cc(C)c21 [Compound 42, 3-(4-(5-Chloro-7-methyl-1-propyl-1H-pyrrolo[3,2-b]pyridin-3-yl)pyrimidin-2-ylamino)benzenesulfonamide]
- IC50 (HepG2): 0.55 µM
- IC50 (HCT 116; [3]): 3.36 µM
- IC50 (Eca-109 cells): 10.5 µM
- IC50 (ACHN-luc): > 10 µM

Structure (SMILES): CCn1cc(-c2ccnc(Nc3cccc(C#N)c3)n2)c2cccnc21 [Compound 20, 3-(4-(1-Ethyl-1H-pyrrolo[2,3-b]pyridin-3-yl)pyrimidin-2-ylamino)benzonitrile]
- IC50 (HepG2): 1.81 µM
- IC50 (HCT 116; [3]): > 10 µM
- IC50 (Eca-109 cells): > 10 µM
- IC50 (ACHN-luc): > 10 µM
- IC50 (Jurkat; [4]): 3.42 µM

Structure (SMILES): CCCn1cc(-c2ccnc(Nc3cccc(S(N)(=O)=O)c3)n2)c2ccncc21 [Compound 111, 3-(4-(1-Propyl-1H-pyrrolo[2,3-c]pyridin-3-yl)pyrimidin-2-ylamino)benzenesulfonamide]
- IC50 (HepG2): 0.58 µM
- IC50 (Eca-109 cells): 0.05 µM
- IC50 (ACHN-luc): 0.06 µM
- IC50 (Jurkat; [4]): 0.0054 µM

Structure (SMILES): CCCn1cc(-c2ccnc(Nc3cccc(S(N)(=O)=O)c3)n2)c2ccncc21 [SG51]
- IC50 (TSSK1): 0.0016 µM
- IC50 (SRC): 0.2 µM
- IC50 (CDK9): 0.0006 µM
- IC50 (HCT 116; [2]): 0.004 µM
- IC50 (CDK7): 0.043 µM
